This is an account of results in ChEMBL document CHEMBL5390236, “Biological production of epicoccamide-aglycone and its cytotoxicity” (Bioorg Med Chem Lett, 2023).

Converted amounts (≈) assume the structure as drawn. The source made the active and inactive calls. The rule behind the calls is not given here.

The test system of one series is Staphylococcus aureus. The series is described as follows: Antibacterial activity against Staphylococcus aureus. It counts as functional.
Series [1] in a line: Cytotoxicity against human WI-38 cells assessed as reduction in cell population to midpoint between values of non-treated control and lowest population by MTT assay. It counts as toxicity, cell-based.
Series [2] relates to HeLa. In words: Cytotoxicity against human HeLa cells assessed as reduction in cell population by MTT assay relative to control. It counts as functional.
Series [3] deals with Epicoccum nigrum. In words: Antifungal activity against Epicoccum nigrum deltaepcB assessed as reduction in fungal growth at 80 ug by paper disk assay. It counts as functional, organism-based. The note with it: dose 80.0 µg.
The next series relates to Saccharomyces cerevisiae. The series is described as follows: Antifungal activity against Saccharomyces cerevisiae assessed as reduction in fungal growth at 80 ug by paper disk assay. In kind it is functional, organism-based. Particulars: dose 80.0 µg.
Series [4] has as its system Epicoccum nigrum. In words: Antifungal activity against wild type Epicoccum nigrum assessed as reduction in fungal growth at 80 ug by paper disk assay. It counts as functional, organism-based. Particulars: dose 80.0 µg.
The test system of a further series is Cryptococcus neoformans. In words: Antifungal activity against Cryptococcus neoformans assessed as reduction in fungal growth at 80 ug by paper disk assay. In kind it is functional, organism-based. Particulars: dose 80.0 µg.
A further series relates to Escherichia coli. The series is described as follows: Antibacterial activity against Escherichia coli. In kind it is functional, organism-based.
Series [5] concerns HeLa. In words: Cytotoxicity against human HeLa cells assessed as inhibition in cell proliferation at 10 to 100 uM by MTT assay. In kind it is functional, cell-based. Particulars: dose 10-100 µM.
The subject of another series is WI-38. The series is described as follows: Cytotoxicity against human WI-38 cells assessed as inhibition in cell proliferation at 10 to 100 uM by MTT assay. In kind it is toxicity, cell-based. Particulars: wi-38, 100 µM, dose 10-100 µM.
The subject of series [6] is HeLa. In words: Cytotoxicity against human HeLa cells assessed as reduction in cell population to midpoint between values of non-treated control and lowest population by MTT assay. It counts as functional, cell-based.
The subject of series [7] is HeLa. In words: Cytotoxicity against human HeLa cells assessed as reduction in cell population to half by MTT assay. In kind it is functional, cell-based.
Series [8] in a line: Cytotoxicity against human WI-38 cells assessed as reduction in cell population to half by MTT assay. It counts as toxicity, cell-based.
The nature of series [9]: Cytotoxicity against human WI-38 cells assessed as reduction in cell population by MTT assay relative to control. In kind it is toxicity, cell-based.
Series [10] can be described thus: Cytotoxicity against human WI-38 cells assessed as inhibition in cell growth at 100 uM by MTT assay relative to control. In kind it is toxicity, cell-based.
In series [11] the test system is HeLa. In words: Cytotoxicity against human HeLa cells assessed as relative cell population at 50 uM by MTT assay relative to control. In kind it is functional.
In series [12] the test system is HeLa. The series is described as follows: Cytotoxicity against human HeLa cells assessed as relative cell population at 100 uM by MTT assay relative to control. It counts as functional.
The subject of series [13] is HeLa. The series is described as follows: Cytotoxicity against human HeLa cells assessed as inhibition in cell growth at 200 uM by MTT assay. In kind it is functional, cell-based.

Molecule `C[C@@H](CCCCCCCCC(=O)CCCCCCCCC[C@H](O)CO)/C(O)=C1/C(=O)N[C@@H](Cc2ccc(O)cc2)C1=O` had an MIC against Staphylococcus aureus of 2.8 µg/mL (≈ 4.76 µM).

`C[C@@H](CCCCCCCCCCCCCCO)C(=O)C1=C(O)N(C)[C@@H](C)C1=O`: the half-maximal effective concentration (EC50) in series [1] is 9.1 µM; in the series with HeLa [6], 12 µM. Further, the Emax stood at 23% in the series with HeLa [2] and 20% in series [9]. The outcome with Epicoccum nigrum [3], with Epicoccum nigrum [4], in the series on Cryptococcus neoformans and in the series with Escherichia coli was inactive. Also, in the series with Saccharomyces cerevisiae, the result was Active. Besides, the MIC against Staphylococcus aureus was determined as 1 µg/mL (≈ 2.53 µM). In the series with HeLa [5], the inhibition result is “Active”. Further, in the series with WI-38, the Activity entry is listed as “Toxic”. For the same molecule, the IC50 is 19 µM in the series with HeLa [7] (read-out: IC50) and 15 µM in series [8].

Consider `COc1cccc2c1C(=O)c1c(O)c3c(c(O)c1C2=O)C[C@@](O)(C(=O)CO)C[C@@H]3O[C@H]1C[C@H](N)[C@H](O)[C@H](C)O1` [DOXORUBICIN], for which the maximum response (Emax) in the series on HeLa [2] is 15%. For the same molecule, the inhibition at 100 µM in [10] was under 10%. Besides, the EC50 with HeLa [6] was found to be 4.3 µM. In addition, in the series with HeLa [7], the IC50 stood at 5.1 µM.

In the series on Staphylococcus aureus, `C[C@@H](CCCCCCCCC(=O)CCCCCCCCC[C@H](O)CO[C@@H]1O[C@H](CO)[C@@H](O)[C@H](O)[C@@H]1O)/C(O)=C1/C(=O)N[C@@H](Cc2ccc(O)cc2)C1=O` came in with an MIC of 7.2 µg/mL (≈ 9.6 µM).

For `C[C@@H](CCCCCCCCCCCCCCO[C@@H]1O[C@H](CO)[C@@H](O)[C@H](O)[C@@H]1O)C(=O)C1=C(O)N(C)[C@@H](C)C1=O`, the EC50 turned out to be 34 µM in [1] and 70 µM with HeLa [6]. In addition, the Emax with HeLa [2] turned out to be 3.2%; in [9], 4.6%. The outcome in the series on Epicoccum nigrum [3], in the series with Epicoccum nigrum [4], with Cryptococcus neoformans and in the series with Escherichia coli was inactive. Besides, the outcome in the series with Saccharomyces cerevisiae was Active. In the series with Staphylococcus aureus, this molecule registered an MIC of 64 µg/mL (≈ 115 µM). Moreover, the Activity is 88% in the series with HeLa [11] and 14% in the series on HeLa [12]. In the series with HeLa [13], the inhibition result was “Active”. Moreover, the figures for the IC50 (in the series with HeLa [7] (read-out: IC50); in series [8]) were 76 µM and 38 µM, respectively.
